Test results as given in patent US20110250135A1, “Piperazine Derivatives for Binding and Imaging Amyloid Plaques and Their Use” (Bayer Schering Pharma Aktiengesellschaft, priority 2008, published 2011).

Columns and labels:
[1] = Biodistribution: organ distribution of F-18 signal in mice; assay type: in vivo, male NMRI mice; settings: for Organ distribution of F-18 signal, intestine: intestine (with content); for Organ distribution of F-18 signal, stomach: stomach (without content)
Procedure: Biodistribution and excretion studies were performed in male NMRI mice (body weight app. 30g; 3 animals per time point). The animals were kept under normal laboratory conditions at a temperature of 22±2° C. and a dark/light rhythm of 12 hours. Food and water were provided ad libitium. During an acclimation period of at least 3 days before the beginning of the study animals were clinically examined to ascertain the absence of abnormal clinical signs. At 2, 5, 30, 60, 240 min post intravenous injection via the tail vein of ca. 150 kBq in 100 μl of the test compound, urine and feces were quantitatively collected. At the same time points, animals were sacrificed by decapitation and under isoflurane anaesthesia and the following organs and tissues were removed for the determination of radioactivity using a gamma-counter: spleen, liver, kidney, lung, femur, heart, brain, fat, thyroid, muscle, skin, blood, tail, stomach (without content), testicle, intestine (with content), pancreas, adrenals, and the remaining body. For analysis the decay corrected percentage of the injected dose per tissue weight (% ID/g±standard deviation) was calculated.

[2] = target: T1, Aβ plaques (Homo sapiens, UniProt P05067); test: Autoradiographical analysis of binding to cryosections from cortex of AD patients and controls; settings: F-18 labeled compound; Alzheimer's disease patients (AD) vs controls without Aβ plaques
T1 construct: controls without Aβ plaques; from tissue; host or cells: frontal lobe / cortex sections (frozen and paraffin) from AD patients, FTD patients and age-matched controls
Text: Fresh frozen as well as paraffin embedded sections of the frontal lobe from Alzheimer's dementia patients, frontotemporal dementia patients and age matched controls were used for the study. Frozen sections, sliced at 18 μm thickness on a cryostate (Leica, Germany) and paraffin sections, sliced on a sliding microtom (Leica) at a thickness of 6 μm, were mounted onto glass slides (Superfrost Plus, Fa.Menzel, Braunschweig Germany). Frozen sections were allowed to adhere to the slides for several nights at −20° C. The paraffin sections were deparaffinized using routine histological methods. For binding studies sections were incubated with the F-18 labeled test compound at 10 Bq/μl diluted in 25 mM Hepes buffer, pH 7.4, 0.1% (BSA) (200-300 μl/slide) for 1.5 hour at room temperature in a humidified chamber. For blocking experiments a 1000-fold access of the unlabeled test substance was added to the incubation mixture. After hybridization, sections were washed four times with Hepes buffer, 0.1% BSA (or alternatively two times with 40% ethanol) and finally dipped two times into dest. water for 10 sec. The air-dried sections were exposed to imaging plates and signals were detected by a phosphoimager device (Fuji BAS5000).

T1 sequence (P05067 672-713 limits assumed): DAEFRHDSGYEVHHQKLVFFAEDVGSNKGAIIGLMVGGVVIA

## O=C(NCC(=O)N1CCN(c2ccc(OCc3ccccc3)cc2)CC1)c1ccnc([18F])c1 [Example 11c, N-{2-[4-(4-Benzyloxy-phenyl)-piperazin-1-yl]-2-oxoethyl}-2-[F-18]-fluoro-isonicotinamide]
[1]; 2 min post i.v. injection
  Organ distribution of F-18 signal, adrenals: 9.24 % ID/g
  Organ distribution of F-18 signal, blood: 1.70 % ID/g
  Organ distribution of F-18 signal, brain: 5.54 % ID/g
  Organ distribution of F-18 signal, fat: 1.52 % ID/g
  Organ distribution of F-18 signal, femur: 1.53 % ID/g
  Organ distribution of F-18 signal, heart: 4.68 % ID/g
  Organ distribution of F-18 signal, intestine: 2.14 % ID/g
  Organ distribution of F-18 signal, kidney: 7.68 % ID/g
  Organ distribution of F-18 signal, liver: 7.17 % ID/g
  Organ distribution of F-18 signal, lung: 4.14 % ID/g
  Organ distribution of F-18 signal, muscle: 2.38 % ID/g
  Organ distribution of F-18 signal, pancreas: 4.44 % ID/g
  Organ distribution of F-18 signal, skin: 1.22 % ID/g
  Organ distribution of F-18 signal, spleen: 1.47 % ID/g
  Organ distribution of F-18 signal, stomach: 3.46 % ID/g
  Organ distribution of F-18 signal, tail: 8.55 % ID/g
  Organ distribution of F-18 signal, testicle: 1.36 % ID/g
  Organ distribution of F-18 signal, thyroid: 3.11 % ID/g
[1]; 5 min post i.v. injection
  Organ distribution of F-18 signal, adrenals: 5.60 % ID/g
  Organ distribution of F-18 signal, blood: 1.78 % ID/g
  Organ distribution of F-18 signal, brain: 4.73 % ID/g
  Organ distribution of F-18 signal, fat: 1.84 % ID/g
  Organ distribution of F-18 signal, femur: 1.54 % ID/g
  Organ distribution of F-18 signal, heart: 4.36 % ID/g
  Organ distribution of F-18 signal, intestine: 2.66 % ID/g
  Organ distribution of F-18 signal, kidney: 8.07 % ID/g
  Organ distribution of F-18 signal, liver: 12.14 % ID/g
  Organ distribution of F-18 signal, lung: 3.76 % ID/g
  Organ distribution of F-18 signal, muscle: 2.54 % ID/g
  Organ distribution of F-18 signal, pancreas: 3.97 % ID/g
  Organ distribution of F-18 signal, skin: 1.80 % ID/g
  Organ distribution of F-18 signal, spleen: 2.01 % ID/g
  Organ distribution of F-18 signal, stomach: 3.07 % ID/g
  Organ distribution of F-18 signal, tail: 5.41 % ID/g
  Organ distribution of F-18 signal, testicle: 1.70 % ID/g
  Organ distribution of F-18 signal, thyroid: 2.41 % ID/g
[1]; 30 min post i.v. injection
  Organ distribution of F-18 signal, adrenals: 2.41 % ID/g
  Organ distribution of F-18 signal, blood: 1.13 % ID/g
  Organ distribution of F-18 signal, brain: 1.00 % ID/g
  Organ distribution of F-18 signal, fat: 1.94 % ID/g
  Organ distribution of F-18 signal, femur: 0.68 % ID/g
  Organ distribution of F-18 signal, heart: 1.54 % ID/g
  Organ distribution of F-18 signal, intestine: 10.01 % ID/g
  Organ distribution of F-18 signal, kidney: 7.83 % ID/g
  Organ distribution of F-18 signal, liver: 9.41 % ID/g
  Organ distribution of F-18 signal, lung: 1.65 % ID/g
  Organ distribution of F-18 signal, muscle: 1.03 % ID/g
  Organ distribution of F-18 signal, pancreas: 2.20 % ID/g
  Organ distribution of F-18 signal, skin: 1.43 % ID/g
  Organ distribution of F-18 signal, spleen: 0.93 % ID/g
  Organ distribution of F-18 signal, stomach: 3.10 % ID/g
  Organ distribution of F-18 signal, tail: 3.21 % ID/g
  Organ distribution of F-18 signal, testicle: 1.13 % ID/g
  Organ distribution of F-18 signal, thyroid: 1.08 % ID/g
[1]; 60 min post i.v. injection
  Organ distribution of F-18 signal, adrenals: 2.45 % ID/g
  Organ distribution of F-18 signal, blood: 0.49 % ID/g
  Organ distribution of F-18 signal, brain: 0.34 % ID/g
  Organ distribution of F-18 signal, fat: 0.80 % ID/g
  Organ distribution of F-18 signal, femur: 0.38 % ID/g
  Organ distribution of F-18 signal, heart: 0.54 % ID/g
  Organ distribution of F-18 signal, intestine: 14.79 % ID/g
  Organ distribution of F-18 signal, kidney: 4.37 % ID/g
  Organ distribution of F-18 signal, liver: 4.72 % ID/g
  Organ distribution of F-18 signal, lung: 0.69 % ID/g
  Organ distribution of F-18 signal, muscle: 0.38 % ID/g
  Organ distribution of F-18 signal, pancreas: 0.77 % ID/g
  Organ distribution of F-18 signal, skin: 0.66 % ID/g
  Organ distribution of F-18 signal, spleen: 0.37 % ID/g
  Organ distribution of F-18 signal, stomach: 1.13 % ID/g
  Organ distribution of F-18 signal, tail: 0.87 % ID/g
  Organ distribution of F-18 signal, testicle: 0.65 % ID/g
  Organ distribution of F-18 signal, thyroid: 0.50 % ID/g
[1]; 240 min post i.v. injection
  Organ distribution of F-18 signal, adrenals: 0.30 % ID/g
  Organ distribution of F-18 signal, blood: 0.12 % ID/g
  Organ distribution of F-18 signal, brain: 0.05 % ID/g
  Organ distribution of F-18 signal, fat: 0.08 % ID/g
  Organ distribution of F-18 signal, femur: 0.16 % ID/g
  Organ distribution of F-18 signal, heart: 0.13 % ID/g
  Organ distribution of F-18 signal, intestine: 13.00 % ID/g
  Organ distribution of F-18 signal, kidney: 1.12 % ID/g
  Organ distribution of F-18 signal, liver: 2.09 % ID/g
  Organ distribution of F-18 signal, lung: 0.31 % ID/g
  Organ distribution of F-18 signal, muscle: 0.07 % ID/g
  Organ distribution of F-18 signal, pancreas: 0.18 % ID/g
  Organ distribution of F-18 signal, skin: 0.10 % ID/g
  Organ distribution of F-18 signal, spleen: 0.09 % ID/g
  Organ distribution of F-18 signal, stomach: 0.34 % ID/g
  Organ distribution of F-18 signal, tail: 0.39 % ID/g
  Organ distribution of F-18 signal, testicle: 0.15 % ID/g
  Organ distribution of F-18 signal, thyroid: 0.19 % ID/g
[2]
  autoradiographical analysis of binding to cryosections from cortex: Specific binding in plaque-rich regions of AD samples
